BindingDB's records for doi:10.1021/jm00384a023 (1987)

Test: Inhibitor concentration required to block 50% of the specific [3H]PAF binding, obtained as natural product.

IC50 [nM] | Structure (SMILES)
70 | CCCC1=C[C@@]2(OC)C(=CC1=O)O[C@H](c1ccc(OC)c(OC)c1)[C@H]2C
500 | C=CCC1=CC2(OCC)C(=CC1=O)O[C@H](c1ccc(OC)c(OC)c1)[C@H]2C (some centres not stated)
